Measurements published in ChEMBL document CHEMBL1201862, “PubChem BioAssay data set” (2004).
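Five concentrations, 48 hours, 96-well plates. GI50 is the concentration that inhibits growth by half.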 Activity calls are given as the source filed them. Cut-off read from the data, not from the text of the source: active = GI50 up to about 1.1 µM and inactive = higher.

Columns and labels:
Assay in all cases: NCI-60 cell line screen, 48 h
SK-MEL-28 = test system: SK-MEL-28
A549 = test system: A549
786-0 = test system: 786-0
A498 = test system: A498
EKVX = test system: EKVX
BT-549 = test system: BT-549
OVCAR-3 = test system: OVCAR-3
IGROV-1 = test system: IGROV-1
SK-OV-3 = test system: SK-OV-3
KM12 = test system: KM12
DU-145 = test system: DU-145
CCRF-CEM = test system: CCRF-CEM
MDA-MB-231 = test system: MDA-MB-231
ACHN = test system: ACHN
MCF7 = test system: MCF7
MOLT-4 = test system: MOLT-4
K562 = test system: K562
HCT-116 = test system: HCT-116
SK-MEL-2 = test system: SK-MEL-2
SR = test system: SR
OVCAR-8 = test system: OVCAR-8
RXF 393 = test system: RXF 393
NCI/ADR-RES = test system: NCI/ADR-RES
U-251 = test system: U-251
Malme-3M = test system: Malme-3M
NCI-H460 = test system: NCI-H460
NCI-H522 = test system: NCI-H522
HT-29 = test system: HT-29
M14 = test system: M14
HCC 2998 = test system: HCC 2998
HCT-15 = test system: HCT-15
HOP-92 = test system: HOP-92
MDA-MB-435 = test system: MDA-MB-435
SNB-75 = test system: SNB-75
T47D = test system: T47D
TK-10 = test system: TK-10
HL-60 = test system: HL-60
SF-295 = test system: SF-295
SNB-19 = test system: SNB-19
NCI-H23 = test system: NCI-H23
SK-MEL-5 = test system: SK-MEL-5
UACC-62 = test system: UACC-62
OVCAR-4 = test system: OVCAR-4
CAKI-1 = test system: CAKI-1
LOX IMVI = test system: LOX IMVI
SN12C = test system: SN12C
HOP-62 = test system: HOP-62
RPMI-8226 = test system: RPMI-8226
UO-31 = test system: UO-31
SW-620 = test system: SW-620
SF-268 = test system: SF-268
COLO 205 = test system: COLO 205
OVCAR-5 = test system: OVCAR-5
SF-539 = test system: SF-539
UACC-257 = test system: UACC-257
PC-3 = test system: PC-3
Hs-578T = test system: Hs-578T
NCI-H226 = test system: NCI-H226
MDA-N = test system: MDA-N

Measured: GI50

CN(CCCNC(=O)c1nn(C)c2c1Cc1ccccc1-2)CCCNC(=O)c1nn(C)c2c1Cc1ccccc1-2
active: UO-31 0.614 µM
17.7 µM: HCT-15
inactive: SK-MEL-28 20.1 µM | A549 16.5 µM | 786-0 10.7 µM | A498 17 µM | EKVX 19.2 µM | BT-549 21 µM | OVCAR-3 16.1 µM | IGROV-1 15.3 µM | SK-OV-3 16 µM | KM12 16.2 µM | DU-145 16.9 µM | CCRF-CEM 2.18 µM | MDA-MB-231 19.3 µM | ACHN 16.7 µM | MCF7 15 µM | MOLT-4 4.73 µM | K562 7.94 µM | HCT-116 14.3 µM | SK-MEL-2 16 µM | SR 2.99 µM | OVCAR-8 19.6 µM | RXF 393 13.9 µM | NCI/ADR-RES 24.4 µM | U-251 12.5 µM | Malme-3M 20.5 µM | NCI-H460 18 µM | NCI-H522 21.8 µM | HT-29 13.3 µM | M14 6.15 µM | HCC 2998 8.22 µM | HOP-92 15.6 µM | MDA-MB-435 10.8 µM | SNB-75 15.2 µM | T47D 22.5 µM | TK-10 19.1 µM | HL-60 5.28 µM | SF-295 18.2 µM | SNB-19 9.53 µM | NCI-H23 21.9 µM | SK-MEL-5 13.5 µM | UACC-62 19.4 µM | OVCAR-4 16.3 µM | CAKI-1 18.7 µM | LOX IMVI 2.49 µM | SN12C 16.5 µM | HOP-62 10.8 µM | RPMI-8226 13.3 µM | SW-620 10.1 µM | SF-268 19.2 µM | COLO 205 13.7 µM | OVCAR-5 18.3 µM | SF-539 16.4 µM | UACC-257 12.1 µM | PC-3 16.2 µM | Hs-578T 20.5 µM

Cc1ccc(-n2cc(-c3ccc(Cl)cc3)c3c(NN)ncnc32)cc1
4.4 µM: HCT-15
inactive: SK-MEL-28 3.66 µM | A549 3.26 µM | 786-0 2.55 µM | EKVX 3.3 µM | IGROV-1 1.85 µM | SK-OV-3 5.14 µM | KM12 10.7 µM | DU-145 3.49 µM | MDA-MB-231 6.89 µM | ACHN 3.31 µM | MOLT-4 2.36 µM | K562 2.88 µM | HCT-116 2.4 µM | SK-MEL-2 15.1 µM | SR 3.41 µM | OVCAR-8 3.24 µM | RXF 393 2.75 µM | NCI/ADR-RES 3.64 µM | U-251 1.82 µM | Malme-3M 3.1 µM | NCI-H460 3.4 µM | NCI-H522 3.58 µM | HT-29 4.48 µM | M14 1.38 µM | HCC 2998 2.89 µM | NCI-H226 2.38 µM | HOP-92 2.97 µM | MDA-MB-435 4.65 µM | SNB-75 1.39 µM | T47D 2.55 µM | TK-10 12.4 µM | HL-60 2.1 µM | SF-295 3.36 µM | SNB-19 2.93 µM | NCI-H23 3.04 µM | SK-MEL-5 1.57 µM | UACC-62 2.67 µM | OVCAR-4 1.73 µM | CAKI-1 4.33 µM | LOX IMVI 4.68 µM | SN12C 2.84 µM | HOP-62 2.43 µM | UO-31 3.82 µM | SW-620 6.07 µM | SF-268 2.64 µM | COLO 205 1.72 µM | OVCAR-5 6.43 µM | SF-539 2.51 µM | UACC-257 3.97 µM | MDA-N 8.83 µM | PC-3 5.55 µM
active: OVCAR-3 0.357 µM | CCRF-CEM 0.566 µM
